Test results: ChEMBL document CHEMBL1201862, “PubChem BioAssay data set” (2004)
Active and inactive are the calls of the source.

Key:
[1] = target: T1, NAD-dependent protein deacylase sirtuin-5, mitochondrial (Homo sapiens, UniProt Q9NXA8); assay: sirtuin-5 deacylation blockers, concentration series – biochemical, fluorescence imaging, cherry-pick, set 5, dose response (AID 720591);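 also: desuccinylation of succinyl peptide AMC substrate read as fluorescence after trypsin release; potency of inhibitors that lower fluorescence and may act on trypsin instead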
T1 sequence (Q9NXA8 whole entry): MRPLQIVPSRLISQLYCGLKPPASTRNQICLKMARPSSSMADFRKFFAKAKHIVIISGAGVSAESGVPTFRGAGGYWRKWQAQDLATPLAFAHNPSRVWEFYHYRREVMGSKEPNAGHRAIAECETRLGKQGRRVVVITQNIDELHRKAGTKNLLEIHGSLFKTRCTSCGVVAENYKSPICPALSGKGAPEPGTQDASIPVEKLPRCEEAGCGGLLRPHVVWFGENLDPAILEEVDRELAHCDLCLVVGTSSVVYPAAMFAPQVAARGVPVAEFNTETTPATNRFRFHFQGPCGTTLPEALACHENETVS

[2] = inhibitors of TRPM1-promoter reporter in SK-MEL-5 – cell-based, luciferase, dry powder, set 9, MITF inhibitor project, dose response (AID 651588); assay type: functional
[3] = cytotoxicity in MITF-independent A375 cells – cell-based, CellTiter-Glo luminescence, dry powder, set 4, counter-screen for MITF inhibitor project, dose response (AID 624364); assay type: functional; conditions: A-375;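 also: A375 melanoma cells are MITF independent so this is a counter screen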
[4] = MITF Orthogonal Assay: MALME3 CTG Assay Measured in Cell-Based System Using Plate Reader - 2084-04_Inhibitor_Dose_DryPowder_Activity_Set6.; assay type: functional; conditions: MALME-3
[5] = growth inhibition of SK-MEL-5 melanoma cells – cell-based, CellTiter-Glo luminescence, dry powder, set 8, orthogonal assay for MITF inhibitor project, dose response (AID 651586); assay type: functional
[6] = growth inhibition of MALME3 cells – cell-based, CellTiter-Glo luminescence, dry powder, set 5, orthogonal assay for MITF inhibitor project, dose response (AID 651584); assay type: functional; conditions: MALME-3
[7] = cytotoxicity in melanoma parental cells – cell-based, CellTiter-Glo, dry powder, set 6, MITF inhibitor project, dose response (AID 624429); assay type: functional; conditions: SK-MEL-5
[8] = MITF Orthogonal Assay: SK-MEL-5 CTG Assay Measured in Cell-Based System Using Plate Reader - 2084-02_Inhibitor_Dose_DryPowder_Activity_Set5.; assay type: functional
[9] = viability loss in MITF-independent A375 cells – cell-based, CellTiter-Glo luminescence, dry powder, set 6, counter-screen for MITF inhibitor project, dose response (AID 624488); assay type: functional; conditions: A-375
[10] = MITF Measured in Cell-Based System Using Plate Reader - 2084-01_Inhibitor_Dose_DryPowder_Activity_Set6.; assay type: functional
[11] = MITF Measured in Cell-Based System Using Plate Reader - 2084-01_Inhibitor_Dose_DryPowder_Activity_Set7.; assay type: functional
[12] = melanocyte viability loss, MITF-dependent cells, cell-based, plate reader, dry powder, cytotoxicity control, dose response (AID 651920); assay type: functional
[13] = T. cruzi growth inhibition in host cells, dose response, cell-based, plate reader, dry powder, set 2 (AID 652275); assay type: functional
[14] = Trypanosoma cruzi replication inhibitors in host cells – cell-based, plate reader, dry powder samples, dose response (AID 651845); assay type: functional
[15] = anti-trypanosomal activity in BESM host cells – imaging, CA-I/72 strain, bovine embryo skeletal muscle, dry powder, dose response (AID 651885); assay type: functional, cell-based
[16] = inhibitors of non-replicating M. tuberculosis, dose response, luciferase, dry powder (AID 651619); assay type: functional; conditions: Mycobacterium tuberculosis
[17] = inhibitors of non-replicating M. tuberculosis, dose response, luciferase, dry powder (AID 651620); assay type: functional; conditions: Mycobacterium tuberculosis
[18] = target: T1, NAD-dependent protein deacylase sirtuin-5, mitochondrial; assay: blockers of sirtuin-5 peptide desuccinylation – biochemical, fluorescence imaging, cherry-pick, set 6, dose response (AID 720597)
[19] = viability reduction in hepatoma cells – cell-based, ATP luminescence, dry powder, Set4, cytotoxicity control, dose response (AID 743143); assay type: functional; conditions: HepG2

For `Cc1ccc(C(=O)COC(=O)CN2C(=O)C3C4CC(C(Br)C4Br)C3C2=O)cc1` (centres undefined), the AC50 [1] was > 30 µM (inactive).

For `O=C1C(Nc2ccccc2)=C(c2ccccc2)C(=O)c2ccccc21`, the AC50 [2] was 28.8 µM (active), the AC50 [3] was > 70 µM (inactive) and the AC50 [4] was 68.9 µM (active). For the same molecule, the AC50 [5] was 29.3 µM (active), the AC50 [6] was 68.9 µM (active) and the AC50 [7] was 35 µM (active). For the same molecule, the AC50 [8] was 27.6 µM (active), the AC50 [9] was > 70 µM (inactive) and the AC50 [10] was 10.2 µM (active). The AC50 [11] was 8.71 µM (active) and the AC50 [12] was > 70 µM (inactive).

In the case of `CC(C)N1C[C@H](C)[C@@H](CN(C)Cc2cccc(Cl)c2)Oc2c(NC(=O)c3ccncc3)cccc2C1=O`, the AC50 [13] is reported as 0.00208 µM (active), the AC50 [14] is reported as 0.00208 µM (active) and the IC50 [15] is reported as 0.00102 µM (active).

For `c1ccc(-c2nnc(SC3CCCCC3)o2)cc1`, the IC90 [16] was 2 µM (active) and the IC90 [17] was 2 µM (active).

In the case of `COc1ccc(NC(=O)N2C[C@H](O)COC[C@@H]3O[C@@H](CC(=O)N4CCCCC4)CC[C@H]32)cc1`, the AC50 [18] is reported as 26.1 µM (active).

For `O=C(CCCNC(=O)c1ccc(Cl)c(Cl)c1)N[C@@H]1CCCc2ccccc21`, the AC50 [19] was > 52 µM (inactive).
